Source: US10774122B2, “ERG targeted therapy” (The Regents of the University of Michigan, priority 2017, dated 2020)
Where a SMILES comes first, the peptide text is derived from it. [ ]: non-standard residue; d: D form.

How the values were obtained:
VCaP cells = type: cell-based
Experimental: The samples were treated with SDS loading buffer supplied with 10 mM DTT for 5 min at 85° C. The proteins were alkylated by adding iodoacetamide to the final concentration of 15 mM. The samples were subjected to SDS-PAGE and the whole lanes were cut out and digested with trypsin in-gel for 2 hours. The resulting peptides were extracted, dried and resuspended in 0.1% formic acid with 5% acetonitrile prior to loading onto a trap EASY-column (Thermo Scientific) coupled to an in-house made nano HPLC column (20 cm×75 um) packed with LUNA C18 media. Analysis was performed on Velos Pro mass spectrometer (Thermo Scientific) operated in data-dependent mode using 90-min gradients in EASY-LC system (Proxeon) with 95% water, 5% acetonitrile (ACN), 0.1% formic acid (FA) (solvent A), and 95% ACN, 5% water, 0.1% FA (solvent B) at a flow rate of 220 nl/min. […]
The resulting spectrum files were transformed into MGF format by MSConvert software and interrogated by MASCOT 2.4 search engine using human UniProt database version 15 concatenated with reverse sequences for estimation of false discovery rate (FDR) and with a list of common contaminants. […] The peptide FDR was calculated as 2×(decoy_hits)/(target+decoy hits). Spectral counts for all detected proteins were assembled using an in-house written Python script. […]

ERG:DNA-PKcs interaction = target: T1, ERG:DNA-PKcs interaction (Homo sapiens, UniProt P11308); conditions: mouse, in vivo, 25 mg/kg
T1 sequence (P11308 33-479 limits assumed): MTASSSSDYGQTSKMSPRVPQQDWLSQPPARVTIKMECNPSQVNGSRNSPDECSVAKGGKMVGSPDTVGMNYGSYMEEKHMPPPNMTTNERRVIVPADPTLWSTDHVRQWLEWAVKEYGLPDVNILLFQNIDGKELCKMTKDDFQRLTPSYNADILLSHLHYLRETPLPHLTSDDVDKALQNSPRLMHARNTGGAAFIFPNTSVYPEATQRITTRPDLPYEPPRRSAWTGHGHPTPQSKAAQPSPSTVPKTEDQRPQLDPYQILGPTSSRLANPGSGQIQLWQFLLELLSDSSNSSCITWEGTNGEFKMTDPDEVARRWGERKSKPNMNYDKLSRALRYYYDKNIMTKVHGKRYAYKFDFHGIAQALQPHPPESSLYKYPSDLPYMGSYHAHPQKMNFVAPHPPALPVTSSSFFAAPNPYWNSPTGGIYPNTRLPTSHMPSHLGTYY
Experimental: Cell pellets or tumors treated with or without the peptidomimetics were lysed in cell lysis buffer (20 mM MOPS, pH 7.0, 2 mM EGTA, 5 mM EDTA, 30 mM sodium fluoride, 60 mM β-glycerophosphate, 20 mM sodium pyrophosphate, 1 mM sodium orthovanadate, 1% Triton X-100, 1 mM DTT, protease inhibitor cocktail (Roche)). Cell lysates (0.5-1.0 mg) were pre-cleaned with protein A/G agarose beads (Santa Cruz) by incubation for 1 hour with shaking at 4° C. followed by centrifugation at 2000 rpm for 3 minute. Lysates were then incubated with 2 μg ERG antibody (Santa Cruz, C-17) at 4° C. for 4 hours with shaking prior to addition of 20 μl protein A/G agarose beads and incubated at 4° C. overnight. […] Samples were then analyzed by SDS-PAGE and Western blot analysis as described above.
VCaP xenografted mice were injected with a single dose of 25 mg/kg biotinylated RI-EIP1 and serum and tumors were collected at varying time intervals as indicated.

[1] = system: VCaP (ERG fusion-positive) xenografts; experiment: VCaP xenograft mouse model, tumor growth
Experimental: Athymic Nude-Foxnlnu male mice were procured from Harlan Laboratories, Inc (Indianapolis, Ind.). All procedures involving mice were approved by the University Committee on Use and Care of Animals (UCUCA) at the University of Michigan and conformed to their relevant regulatory standards. […] Statistical significance for Kaplan-Meier analysis was determined by the log-rank (Mantel-Cox) test.
Athymic Nude-Foxnlnu male mice were procured from Harlan Laboratories, Inc. (Indianapolis, Ind.). VCaP (2×10^6 cells) or PC3 (5×10^5 cells) were resuspended in 100 μl of saline with 50% Matrigel (BD Biosciences, Becton Drive, NJ) and implanted subcutaneously into the flank regions on both sides of the mice. Mice were anesthetized using a cocktail of xylazine (80-120 mg/kg, IP) and ketamine (10 mg/kg, IP) for chemical restraint before tumor cells implantation. For short term assays, all tumors were staged for three weeks before starting peptidomimetic treatment. After week 3 (VCaP cells) or 12 days (PC3 cells), mice (10 per treatment group) were treated with peptidomimetics (25 mg/kg or 10 mg/kg as indicated, IP) daily five times a week.
Tumor growth was recorded every three days using digital calipers and tumor volumes were calculated using the formula (π/6) (L×W2), where L=length of tumor and W=width. Body weight was monitored weekly over the course of the study. At the end of the xenograft studies, mice were anaesthetized and blood was collected by cardiac puncture and tumors were preserved for further biochemical and immunofluorescence analysis. […] Survival analysis was carried out using the GraphPad Prism 4.0 software (GraphPad Software, San Diego, Calif.). Statistical significance for Kaplan-Meier analysis was determined by the log-rank (Mantel-Cox) test. All procedures involving mice were approved by the University Committee on Use and Care of Animals (UCUCA) at the University of Michigan and conform to their relevant regulatory standards.

CD31^+ vessels = system: CD31^+ vessels; set-up: species or system mice; conditions: mouse, in vivo
From the text: (M) The quantitative data of IHC staining.

Structure (SMILES): CC(C)C[C@@H](NC(=O)[C@H]1CCCN1C(=O)[C@H]1CCCN1C(=O)[C@@H](Cc1ccc(O)cc1)NC(=O)[C@@H](CC(C)C)NC(=O)[C@@H](Cc1ccccc1)NC(=O)[C@H](NC(=O)CNC(=O)CNC(=O)[C@@H](CCCNC(=N)N)NC(=O)[C@@H](CCCCN)NC(=O)[C@@H](CCCCN)NC(=O)[C@@H](CCCNC(=N)N)NC(=O)[C@@H](CCCNC(=N)N)NC(=O)[C@@H](CCC(N)=O)NC(=O)[C@@H](CCCNC(=N)N)NC(=O)[C@@H](CCCNC(=N)N)NC(=O)[C@@H](CCCNC(=N)N)NC(=O)CN)[C@H](C)O)C(=O)O [RI-EIP1] (H-G[dR][dR][dR][dQ][dR][dR][dK][dK][dR]GG[dT][dF][dL][dY][dP][dP][dL]-OH)
- depletion of ERG among 3020 proteins identified (VCaP cells): most significantly depleted
- ERG:DNA-PKcs interaction in VCaP xenograft tumors (ERG:DNA-PKcs interaction): blocked
- recurrences after additional 30 days without therapy ([1]; 25 mg/kg group): no recurrences were observed
- tumors completely regressed with no palpable tumor ([1]; 25 mg/kg, day 18): 10%
- tumors with no signs of recurrence ([1]; 25 mg/kg, extended treatment, day 30): 35%
- tumor growth, additional VCaP xenograft studies ([1]; 1, 5 and 25 mg/kg, effect at 25 mg/kg relative to control): significant suppression
- VCaP tumor growth ([1]; 10 or 25 mg/kg per day, day 18, relative to mutant peptide, p<0.01): dose-dependent reduction
- angiogenesis by number of CD31^+ vessels in FFPE sections (CD31^+ vessels): did not alter angiogenesis
